2 molecules from patent publication US10968188B2, “Benzothiazol compounds and methods using the same for treating neurodegenerative disorders” (1ST Biotherapeutics, Inc., priority 2017, dated 2021) can be followed below.

Series [1] relates to α-synuclein PFF induced PD mice. The experiment in a line: Pole test in α-synuclein PFF induced PD mice. The series is classed as in vivo.
Series [2] deals with Aβ25-35 induced AD mice. Briefly: Y-maze spontaneous alternation in Aβ25-35 induced AD mice. The series is classed as in vivo. The following applies: orally once daily for 10 days; Example 4 1, 3 and 10 mg/kg, nilotinib 3 mg/kg.
Series [3] deals with Aβ25-35 induced AD mice. The experiment in a line: Step-through passive avoidance (STPA) test in Aβ25-35 induced AD mice. The series is classed as in vivo. The following applies: orally once daily for 10 days; Example 4 1, 3 and 10 mg/kg, nilotinib 3 mg/kg.
A further series has as its system lipid peroxidation. The experiment in a line: Lipid peroxidation in hippocampus homogenates of Aβ25-35 induced AD mice. The series is classed as in vivo. The following applies: once daily oral dosing of 3 mg/kg and 10 mg/kg. An excerpt: Y-maze test as a behavioral test was used to assess memory function and the willingness of rodents to explore new environments 10 Days after ICV injection of oligomeric Aβ25-35 peptide, the hippocampus was dissected out. And lipid peroxidation level was quantified in the hippocampus homogenates. ICV injection of oligomeric Aβ25-35 peptide induced lipid peroxidation, a marker for oxidative stress. […] (FIG. 7)

Series [4] is described as follows: Oral dose pharmacokinetic study in mice.

For the molecule `Cc1ccncc1-c1ccc2nc(NC(=O)[C@@H]3C[C@@H]3F)sc2c1` [Example 4], the “increased pole climb down time (sec) by α-synuclein PFF injection” value in series [1] (0.3, 1, 3 and 10 mg/kg orally once daily for 5 months) is given as “recovered by treatment of Example 4 in a dose-dependent manner”. In the series with Aβ25-35 induced AD mice [2], the “deficits of alternation behavior (spatial working memory, Y-maze)” value was “very significantly and fully alleviated”. Moreover, the “contextual long-term memory deficits (STPA)” value in the series with Aβ25-35 induced AD mice [3] was “very significantly and fully alleviated”. The “lipid peroxidation in hippocampus” value in the series on lipid peroxidation is on record as “completely inhibited”. Also, the “PK profile in mice” value in series [4] is given as “good PK profiles”.
Consider `Cc1cn(-c2cc(NC(=O)c3ccc(C)c(Nc4nccc(-c5cccnc5)n4)c3)cc(C(F)(F)F)c2)cn1` [Nilotinib, nilotinib, reference compound], for which the “pole climb down time” value in series [1] (10 mg/kg orally once daily for 5 months) is given as “slight improvement”. Besides, in the series on Aβ25-35 induced AD mice [2], the “deficits of alternation behavior (spatial working memory, Y-maze)” value was “partially alleviated”.
